Patent US20240132513A1, “BENZAZEPINE DERIVATIVES, COMPOSITIONS, AND METHODS FOR TREATING COGNITIVE IMPAIRMENT” (AGENEBIO, INC., priority 2022, published 2024)
Where two headings read alike, the source gives them in different places.

Experiments:
α5β3γ2 GABAA R = α5β3γ2 GABAA R (Homo sapiens, UniProt P18507+P31644); test: Binding activity on GABAA R: inhibition of [3H]Ro15-1788 binding, α5 containing receptor
Method in brief: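 Displacement of [3H]Ro15-1788 (flumazenil) measured at 4 °C over 1 h using 0.2 mg/ml membrane protein from Ltk cells carrying α5β3γ2 GABAA receptors, expression induced with 0.5 μM dexamethasone for 1 day; buffer pH 7.4 KH2PO4/EDTA/KCl. 10 μM diazepam defined nonspecific binding; filter-trapped radioactivity counted, in triplicate.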

GABAA R (α5β2γ2) = target: T1, GABAA R (α5β2γ2) (Homo sapiens, UniProt P18507+P31644); test: Positive allosteric modulator activity: potentiation of EC20 GABA current in oocytes; format: cell-based
T1 construct: expressed in transfected cells
Procedure: On day 1, 1 ng/32 nL of GABAA α5β2γ2 cDNA was injected into one oocyte. Test starts on day 2. The cDNA injected to the oocytes was a mix of alpha, beta and gamma, their ratio is 1:1:10 (by weight) and the total weight of the mixed 3 subunits to be injected in one oocyte was 1 ng in 32 nl volume. The injected oocytes can also be tested on day 3. In such case, the cDNA amount injected to the oocytes should be reduced by 20%.
Compounds of the present disclosure were tested using the following procedures.
8 oocytes were placed in 8 chambers of OpusXpress and superfused with Modified Barth's Saline (MBS) at 3 mL/min. Glass electrodes back-filled with 3M KCl (0.5-3 megaohms) were used. Membrane potential of oocytes was voltage-clamped at −60 mV. • 2).
Control Test (Diazepam or Methyl 3,5-Diphenylpyridazine-4-Carboxylate) • 1). New oocytes was used to run new test. • 2). […] Oocytes were washed with MBS for 5-10 min. • 4). […] Itest was divided by IGABA to obtain potentiation (%).
Test Compounds at Multiple Doses • 1). Repeat the above steps 1), 2) and 3) in the control test. • 2). […] Divide Itest by IGABA to obtain potentiation (%). • 3). Discard all tested oocytes, new oocytes were used and the above steps 1) and 2) were repeated to test second concentration of the same compound. Each oocyte was used for only one concentration test for a single test compound. The steps were repeated for other test compounds.

[1] = read-out: GABA α5 Functional Data: potentiation, @ 100 nM, EC20 GABA, ranges of the column heads
[2] = ranges of the column heads, [3H]Ro15-1788, Ltk cell membranes
[3] = read-out: GABA α5 Functional Data: potentiation

T1 sequence (P31644 32-462): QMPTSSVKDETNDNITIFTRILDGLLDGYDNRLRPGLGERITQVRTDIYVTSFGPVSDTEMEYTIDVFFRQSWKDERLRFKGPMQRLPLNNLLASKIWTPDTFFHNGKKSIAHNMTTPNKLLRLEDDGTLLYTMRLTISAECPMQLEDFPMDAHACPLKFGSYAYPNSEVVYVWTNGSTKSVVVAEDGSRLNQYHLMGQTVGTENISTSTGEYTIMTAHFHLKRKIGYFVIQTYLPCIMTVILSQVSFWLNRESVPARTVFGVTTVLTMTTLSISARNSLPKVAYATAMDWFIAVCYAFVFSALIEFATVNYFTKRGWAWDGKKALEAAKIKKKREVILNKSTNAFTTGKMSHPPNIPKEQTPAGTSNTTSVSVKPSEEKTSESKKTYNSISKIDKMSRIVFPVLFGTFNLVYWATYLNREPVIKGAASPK
T1 sequence (P47870 25-512 partner limits assumed): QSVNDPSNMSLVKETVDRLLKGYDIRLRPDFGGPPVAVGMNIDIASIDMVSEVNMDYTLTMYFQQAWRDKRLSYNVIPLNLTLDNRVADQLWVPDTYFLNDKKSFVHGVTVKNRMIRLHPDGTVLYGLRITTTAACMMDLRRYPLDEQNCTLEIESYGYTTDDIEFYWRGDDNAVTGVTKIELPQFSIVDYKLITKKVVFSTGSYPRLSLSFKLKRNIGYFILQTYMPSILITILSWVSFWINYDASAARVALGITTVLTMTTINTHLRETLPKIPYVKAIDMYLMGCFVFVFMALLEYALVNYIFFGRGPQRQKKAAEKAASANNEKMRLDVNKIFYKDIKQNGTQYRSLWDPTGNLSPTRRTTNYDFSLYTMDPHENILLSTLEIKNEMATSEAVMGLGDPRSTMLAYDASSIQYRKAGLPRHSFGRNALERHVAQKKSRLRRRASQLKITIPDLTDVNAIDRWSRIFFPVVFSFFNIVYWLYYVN
T1 sequence (P18507 40-475): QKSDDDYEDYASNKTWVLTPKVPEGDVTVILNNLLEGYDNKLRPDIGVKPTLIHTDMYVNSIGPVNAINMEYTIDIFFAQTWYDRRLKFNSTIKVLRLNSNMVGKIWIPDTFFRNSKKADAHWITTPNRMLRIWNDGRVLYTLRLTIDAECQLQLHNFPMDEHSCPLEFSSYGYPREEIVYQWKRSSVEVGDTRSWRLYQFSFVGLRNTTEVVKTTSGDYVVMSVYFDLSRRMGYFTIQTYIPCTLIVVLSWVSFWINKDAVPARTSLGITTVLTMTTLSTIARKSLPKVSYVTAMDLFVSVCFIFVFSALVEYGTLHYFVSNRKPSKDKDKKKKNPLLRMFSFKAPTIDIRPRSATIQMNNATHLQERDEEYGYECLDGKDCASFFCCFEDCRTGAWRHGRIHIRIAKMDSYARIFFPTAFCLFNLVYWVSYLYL
Chain of α5β3γ2 GABAA R (P31644 32-462): as the sequence (P31644 32-462) above
Chain of α5β3γ2 GABAA R (P28472 26-473 partner): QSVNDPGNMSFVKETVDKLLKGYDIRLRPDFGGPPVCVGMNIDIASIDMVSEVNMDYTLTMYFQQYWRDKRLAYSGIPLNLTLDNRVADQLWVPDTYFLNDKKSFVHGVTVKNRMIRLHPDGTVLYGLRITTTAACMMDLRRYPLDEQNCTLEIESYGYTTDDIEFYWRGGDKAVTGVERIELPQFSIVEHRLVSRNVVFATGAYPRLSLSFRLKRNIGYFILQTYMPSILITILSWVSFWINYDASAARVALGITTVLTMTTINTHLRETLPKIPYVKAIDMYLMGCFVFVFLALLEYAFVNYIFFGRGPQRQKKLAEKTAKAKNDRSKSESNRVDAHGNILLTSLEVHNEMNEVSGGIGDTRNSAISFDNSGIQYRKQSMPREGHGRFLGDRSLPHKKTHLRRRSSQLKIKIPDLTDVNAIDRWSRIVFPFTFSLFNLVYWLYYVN
Chain of α5β3γ2 GABAA R (P18507 40-475): as the sequence (P18507 40-475) above

Row | SMILES | Ki (α5β3γ2 GABAA R) | activation at 0.1 µM (GABAA R (α5β2γ2); [1]) | Ki (α5β3γ2 GABAA R; [2]) | activation at 0.1 µM (GABAA R (α5β2γ2); [3])
1 | COCc1noc(-c2ncn3c2Cc2cn(CC4CCCO4)nc2-c2cc(Cl)ccc2-3)n1 (stereo not shown) [Compound 288] | < 100 nM | > 50% | – | –
2 | COc1ccc2c(c1)-c1nn(Cc3ccc(F)cc3)cc1Cc1c(-c3nc(C)no3)ncn1-2 [Compound 23] | < 100 nM | 5 to 20% | – | –
3 | COc1ccc2c(c1)-c1nn(CC3CCCO3)cc1Cc1c(-c3noc(C(F)(F)F)n3)ncn1-2 (stereo not shown) [Compound 295] | < 100 nM | 20 to 50% | – | –
4 | CCn1cc2c(n1)-c1cc(Cl)ccc1-n1cnc(C3=N[C@H](c4ccccc4)CO3)c1C2 [Compound 178] | < 100 nM | 20 to 50% | – | –
5 | COc1ccc2c(c1)-c1nn(C)cc1Cc1c(-c3nnc(C)o3)ncn1-2 [Compound 290] | < 100 nM | 20 to 50% | – | –
6 | Cn1cc2c(n1)-c1cc(Cl)ccc1-n1cnc(-c3nc(CN4CCOCC4)no3)c1C2 [Compound 250] | – | – | < 100 nM | > 50%
7 | Cc1nc(-c2ncn3c2Cc2cn(C)nc2-c2cc(Cl)ccc2-3)no1 [Compound 140] | < 100 nM | 5 to 20% | – | –
8 | COCc1noc(-c2ncn3c2Cc2cn(CCOC(F)(F)F)nc2-c2cc(OC)ccc2-3)n1 [Compound 315] | < 100 nM | 20 to 50% | – | –
9 | COC1(c2nc(-c3ncn4c3Cc3cn(C)nc3-c3cc(Cl)ccc3-4)no2)CC1 [Compound 216] | < 100 nM | 5 to 20% | – | –
10 | Clc1ccc2c(c1)-c1nn(CC3CCCO3)cc1Cc1c(-c3noc(C4COCCO4)n3)ncn1-2 (stereo not shown) [Compound 305] | < 100 nM | 5 to 20% | – | –
11 | CCn1cc2c(n1)-c1cc(Cl)ccc1-n1cnc(-c3nc(C)no3)c1C2 [Compound 159] | < 100 nM | 20 to 50% | – | –
12 | COc1ccc2c(c1)-c1nn(C)cc1Cc1c(-c3noc([C@@H]4CCCO4)n3)ncn1-2 [Compound 259] | < 100 nM | 5 to 20% | – | –
13 | Cn1cc2c(n1)-c1cc(Cl)ccc1-n1cnc(-c3noc(C(F)(F)F)n3)c1C2 [Compound 144] | < 100 nM | 20 to 50% | – | –
14 | COCc1nc(-c2ncn3c2Cc2cn(C)nc2-c2cc(Cl)ccc2-3)no1 [Compound 155] | < 100 nM | 20 to 50% | – | –
15 | COC(C)(C)c1noc(-c2ncn3c2Cc2cn(C)nc2-c2cc(Cl)ccc2-3)n1 [Compound 233] | – | – | < 100 nM | 5 to 20%
16 | COc1ccc2c(c1)-c1nn(C3CCOC3)cc1Cc1c(-c3nc(C(F)(F)F)no3)ncn1-2 (stereo not shown) [Compound 263] | < 100 nM | 5 to 20% | – | –
17 | Cn1cc2c(n1)-c1cc(Cl)ccc1-n1cnc(-c3nc(C4CCOC4)no3)c1C2 (stereo not shown) [Compound 134] | < 100 nM | 20 to 50% | – | –
18 | CC(C)n1cc2c(n1)-c1cc(Cl)ccc1-n1cnc(-c3noc(C(F)(F)F)n3)c1C2 [Compound 148] | – | – | < 100 nM | 5 to 20%
19 | Cc1noc(-c2ncn3c2Cc2cn(C(C)C)nc2-c2cc(Cl)ccc2-3)n1 [Compound 160] | < 100 nM | 20 to 50% | – | –
20 | COCc1coc(-c2ncn3c2Cc2cn(C)nc2-c2cc(Cl)ccc2-3)n1 [Compound 284] | – | – | < 100 nM | > 50%
21 | Cc1nc(-c2ncn3c2Cc2cn[nH]c2-c2cc(Cl)ccc2-3)no1 [Compound 86] | < 100 nM | 5 to 20% | – | –
22 | COC(C)(C)c1nc(-c2ncn3c2Cc2cn(C)nc2-c2cc(Cl)ccc2-3)no1 [Compound 214] | < 100 nM | > 50% | – | –
23 | Cn1cc2c(n1)-c1cc(Cl)ccc1-n1cnc(-c3nc(C(C)(C)C)no3)c1C2 [Compound 113] | < 100 nM | 20 to 50% | – | –
24 | Cn1cc2c(n1)-c1cc(Cl)ccc1-n1cnc(-c3noc(C4CCOC4)n3)c1C2 (stereo not shown) [Compound 145] | < 100 nM | 5 to 20% | – | –
25 | Cn1cc2c(n1)-c1cc(Cl)ccc1-n1cnc(-c3noc(C4COC4)n3)c1C2 [Compound 223] | – | – | < 100 nM | 5 to 20%
26 | Clc1ccc2c(c1)-c1nn(CC3CC3)cc1Cc1c(-c3nc(C4CC4)no3)ncn1-2 [Compound 129] | < 100 nM | 20 to 50% | – | –
